Drawing on PubChem BioAssay (NCI), this text covers TGI and GI50 for 23 compounds.

Some test systems named below: ACHN renal; CCRF-CEM leukemia; EKVX NSCLC; K-562 leukemia; OVCAR-5 ovarian; SF-295 CNS; UACC-257 melanoma; UO-31 renal.
Common to all, as to assay: inhibition of tumour cell growth, NCI panel, 48 h

Structures are written as SMILES.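 Where inhibition never reached the appropriate level, the endpoint shown equals the highest concentration tested. Otherwise, values were interpolated linearly from a five-concentration, 48-hour dose response in 96-well plates. At the GI50, growth is halved. TGI marks complete inhibition of growth.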

Consider `CC(=O)OC1=C2CC[C@@H]3C(CC[C@@]4(C)C3CC[C@@H]4OC(C)=O)[C@@]2(C)CC(C#N)C1=O` (stereo partly drawn), for which the TGI in the test with ACHN renal is 71 µM; in the test on CCRF-CEM leukemia, 53.1 µM; with EKVX NSCLC it was > 100 µM; in the test with K-562 leukemia it was 88.1 µM; with OVCAR-5 ovarian, > 100 µM; with SF-295 CNS, > 100 µM. Moreover, the TGI in the test on UACC-257 melanoma and in the test on UO-31 renal was > 100 µM throughout.
In the case of `Cc1[nH]c2ccccc2c1C1=NO/C(=N\O)C(c2c(C)[nH]c3ccccc23)C1` (stereo not drawn), the TGI is > 91.1 µM with ACHN renal; > 100 µM with CCRF-CEM leukemia; > 100 µM with EKVX NSCLC; > 100 µM with K-562 leukemia; > 100 µM in the test with OVCAR-5 ovarian; > 100 µM with SF-295 CNS. In addition, the TGI was > 100 µM in the test with UACC-257 melanoma and > 80.5 µM with UO-31 renal.
For the compound `CN=C1CN=C(OP(=O)(N2CCOCC2)N2CCOCC2)c2cc(Cl)ccc2N1`, the TGI in the test on ACHN renal, in the test on CCRF-CEM leukemia, with EKVX NSCLC, with K-562 leukemia, in the test on OVCAR-5 ovarian and in the test on SF-295 CNS was > 100 µM throughout. Besides, the TGI with UACC-257 melanoma and with UO-31 renal was > 100 µM throughout.
In the case of `COc1cc(/C=C2\NC(=O)C3Cc4c(OC)c(C)c(OC)c(OC)c4C2N3C)c(OC)c(C)c1OC` (stereo not drawn), the TGI in the test on ACHN renal, in the test with CCRF-CEM leukemia, with EKVX NSCLC, in the test on K-562 leukemia, with OVCAR-5 ovarian and in the test on SF-295 CNS was > 100 µM each time. In addition, the TGI in the test with UACC-257 melanoma and in the test on UO-31 renal was > 100 µM in each case.
Turning to `CCOC(=O)CNC(=O)OCc1ccccc1`, the TGI in the test with ACHN renal, with CCRF-CEM leukemia, in the test with K-562 leukemia, with OVCAR-5 ovarian, in the test on SF-295 CNS and in the test on UACC-257 melanoma was > 100 µM in each case. Moreover, the TGI in the test with UO-31 renal is > 100 µM.
For the compound `[Co].[O-]c1cccnc1C=Nc1ccccc1.[OH3+]`, the GI50 in the test with ACHN renal was 79.9 µM; in the test with CCRF-CEM leukemia, > 100 µM; in the test on EKVX NSCLC, > 100 µM; in the test with K-562 leukemia it was 45.8 µM; with OVCAR-5 ovarian it was > 100 µM; in the test on UACC-257 melanoma, > 100 µM. Also, in the test with UO-31 renal, the GI50 was 56.2 µM. Further, the TGI with ACHN renal, in the test on CCRF-CEM leukemia, in the test with EKVX NSCLC, with K-562 leukemia, with OVCAR-5 ovarian and in the test with UACC-257 melanoma was > 100 µM throughout. Moreover, the TGI with UO-31 renal was > 100 µM.
With `Cc1ccc(/C=N/NS(=O)(=O)c2ccccc2)cc1C`, the TGI with ACHN renal, with CCRF-CEM leukemia, in the test with EKVX NSCLC, in the test on K-562 leukemia, in the test with OVCAR-5 ovarian and with SF-295 CNS was > 100 µM each time. Moreover, the TGI in the test on UACC-257 melanoma and in the test on UO-31 renal was > 100 µM in each case.
As for `CC(=O)NCc1c(C(N)=O)ncn1Cc1ccccc1`, the TGI in the test with ACHN renal, in the test with CCRF-CEM leukemia, with EKVX NSCLC, in the test with K-562 leukemia, with SF-295 CNS and in the test with UACC-257 melanoma was > 100 µM each time.
As for `O=C(O)CCSC(=O)Nc1cccc2ccccc12`, the TGI in the test on ACHN renal, with CCRF-CEM leukemia, in the test on EKVX NSCLC, in the test on K-562 leukemia, in the test on OVCAR-5 ovarian and in the test with SF-295 CNS was > 100 µM in each case. For the same compound, the TGI in the test with UACC-257 melanoma and with UO-31 renal was > 100 µM each time.
Turning to `COc1ccc(-c2oc3c(OC)c(OC)c(OC)c(O)c3c(=O)c2OC)cc1O`, the GI50 in the test on ACHN renal was 0.159 µM; in the test with EKVX NSCLC, 0.317 µM; with UACC-257 melanoma it was < 0.01 µM; in the test with UO-31 renal, < 0.01 µM. The TGI with ACHN renal was > 100 µM; with CCRF-CEM leukemia, 11.4 µM; with EKVX NSCLC, > 100 µM; in the test with K-562 leukemia, 13.5 µM; in the test on OVCAR-5 ovarian, > 100 µM; with SF-295 CNS, 21.2 µM. Besides, the TGI with UACC-257 melanoma is > 100 µM; in the test on UO-31 renal, 5.81 µM.
Take `O=[N+]([O-])c1cc(I)cc(/C=N/NS(=O)(=O)c2ccc(Cl)cc2)c1O`: the TGI was determined as 51.4 µM in the test with ACHN renal; 58.5 µM with CCRF-CEM leukemia; 83 µM with EKVX NSCLC; 57.1 µM in the test on K-562 leukemia; 71.6 µM in the test with OVCAR-5 ovarian; 60.6 µM in the test with SF-295 CNS. The figures for the TGI in the test on UACC-257 melanoma and in the test with UO-31 renal were 53.9 µM and 36.8 µM, respectively.
As for `CO/C=C(\Br)c1ccc2c(c1)OCO2`, the TGI in the test on ACHN renal, in the test with CCRF-CEM leukemia, in the test on EKVX NSCLC, with K-562 leukemia, in the test on OVCAR-5 ovarian and in the test with SF-295 CNS was > 100 µM throughout. Further, the TGI with UACC-257 melanoma and in the test on UO-31 renal was > 100 µM each time.
`O=C(C=Nc1ccccc1S)c1ccco1`: the GI50 in the test on ACHN renal is > 100 µM. Also, the TGI was > 100 µM with ACHN renal; 10.2 µM in the test on CCRF-CEM leukemia; 30.2 µM in the test on EKVX NSCLC; 45.8 µM in the test on K-562 leukemia; 18.8 µM with SF-295 CNS; 32.1 µM in the test on UACC-257 melanoma. This compound also gave a TGI in the test with UO-31 renal of 6.77 µM.
For `CC(=O)[CH-]C(C)=O.CC(=O)[CH-]C(C)=O.[Cl-].[O]=[V]`, the GI50 in the test on EKVX NSCLC is 30.3 µM; with OVCAR-5 ovarian, 26.4 µM; with SF-295 CNS it was 12.1 µM; with UO-31 renal, 63.3 µM. The TGI in the test with EKVX NSCLC is > 100 µM; in the test with OVCAR-5 ovarian it was 70.1 µM; in the test with SF-295 CNS it was 44.8 µM; with UO-31 renal, > 100 µM.
As for `CN(C)CCN(C)C(=O)c1cccc2cccc(C(=O)O)c12`, the TGI in the test with ACHN renal, in the test with CCRF-CEM leukemia, in the test on EKVX NSCLC, in the test on K-562 leukemia, in the test on OVCAR-5 ovarian and with SF-295 CNS was > 100 µM in each case. Besides, the TGI in the test with UACC-257 melanoma and in the test with UO-31 renal was > 100 µM each time.
For the compound `O=S1(=O)c2cc(S(=O)(=O)n3ccnc3)ccc2NC2=NCCCN21`, the TGI in the test on ACHN renal is > 100 µM; with CCRF-CEM leukemia, 73.3 µM; in the test with EKVX NSCLC it was > 100 µM; in the test with K-562 leukemia it was > 100 µM; with OVCAR-5 ovarian, > 100 µM; in the test with SF-295 CNS it was > 100 µM. The TGI in the test with UACC-257 melanoma and in the test on UO-31 renal was > 100 µM in each case.
In the case of `N#CC(C(=O)CCC(=O)Nc1cccc(C(F)(F)F)c1)c1ccccc1` (stereo not drawn), the TGI in the test on ACHN renal, in the test on CCRF-CEM leukemia, in the test on EKVX NSCLC, in the test on K-562 leukemia, in the test with OVCAR-5 ovarian and with SF-295 CNS was > 100 µM in each case. The TGI in the test on UACC-257 melanoma and in the test with UO-31 renal was > 100 µM each time.
Regarding `O=C(CC1(O)C(=O)Nc2ccccc21)c1ccc(Cl)cc1Cl` (stereo not drawn), the TGI with ACHN renal, with EKVX NSCLC, in the test with K-562 leukemia, with OVCAR-5 ovarian, in the test on SF-295 CNS and in the test with UACC-257 melanoma was > 100 µM each time. In addition, the TGI in the test on UO-31 renal was > 100 µM.
As to `Brc1ccc(C=NC23CC4CC(CC(C4)C2)C3)cc1`, the TGI with ACHN renal, in the test on CCRF-CEM leukemia, with EKVX NSCLC, with K-562 leukemia, in the test on OVCAR-5 ovarian and in the test with SF-295 CNS was > 100 µM throughout. Also, the TGI in the test on UACC-257 melanoma and with UO-31 renal was > 100 µM each time.
Turning to `COc1ccccc1NC(=O)C1=C(C)NC(C)=C(C(=O)Nc2ccccc2OC)C1c1ccccc1Cl`, the TGI with ACHN renal, in the test with CCRF-CEM leukemia, in the test on EKVX NSCLC, in the test with K-562 leukemia, with OVCAR-5 ovarian and in the test on SF-295 CNS was > 100 µM throughout. In addition, the TGI in the test on UACC-257 melanoma and with UO-31 renal was > 100 µM each time.
Turning to `COc1ccc(-c2cc(=O)c3cc(C)c(C)c(C(=O)O)c3o2)cc1`, the TGI with ACHN renal is 94.4 µM; in the test on CCRF-CEM leukemia, > 100 µM; in the test with EKVX NSCLC, > 100 µM; in the test on K-562 leukemia, > 100 µM; in the test on SF-295 CNS, > 100 µM; in the test on UACC-257 melanoma, > 100 µM. Further, in the test with UO-31 renal, the TGI is > 100 µM.
Regarding `C[C@]12CCc3nonc3C1CC[C@@H]1C2CC[C@@]2(C)C1CC[C@@H]2O` (stereo partly drawn), the TGI in the test on ACHN renal, in the test with CCRF-CEM leukemia, in the test on EKVX NSCLC, with K-562 leukemia, in the test on OVCAR-5 ovarian and in the test on SF-295 CNS was > 100 µM throughout. Moreover, the TGI with UACC-257 melanoma and in the test with UO-31 renal was > 100 µM each time.
`C1C[OH+]CCNCC[OH+]CC[OH+]CCN1.N.[Cl-].[Pt+4]`: the GI50 in the test with ACHN renal is 42 µM; in the test on CCRF-CEM leukemia it was 53.6 µM; in the test on K-562 leukemia, 41.5 µM; in the test with SF-295 CNS it was 49 µM; with UACC-257 melanoma, 78.8 µM; with UO-31 renal, 20.5 µM. Further, the TGI in the test on ACHN renal is > 100 µM; in the test on CCRF-CEM leukemia it was > 100 µM; in the test on K-562 leukemia, > 100 µM; in the test on SF-295 CNS, > 100 µM; with UACC-257 melanoma it was > 100 µM; with UO-31 renal, 80 µM.
